Measurements published in PubChem BioAssay (NCI).
Several values for one entry are separate records, joined by “and”; a condition that tells them apart may be missing. Equal entries are not always repeated.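 All cell lines were grown in 96-well plates and treated with compound for 48 hours. GI50 marks 50% less growth. TGI denotes the concentration required for complete inhibition of growth.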

Key:
Test in all cases: growth of human tumour cells (NCI), 48 h
A498 renal = tested on: A498 renal
SR leukemia = tested on: SR leukemia
A549 NSCLC = tested on: A549 NSCLC
KM12 colon = tested on: KM12 colon
LOX IMVI melanoma = tested on: LOX IMVI melanoma
ACHN renal = tested on: ACHN renal
BT-549 breast = tested on: BT-549 breast
DU-145 prostate = tested on: DU-145 prostate
786-0 renal = tested on: 786-0 renal
SF-268 CNS = tested on: SF-268 CNS

Compound	GI50 (A498 renal)	TGI (A498 renal)	GI50 (SR leukemia)	TGI (SR leukemia) [µM]	GI50 (A549 NSCLC)	TGI (A549 NSCLC)	GI50 (KM12 colon) [µM]	TGI (KM12 colon)	GI50 (LOX IMVI melanoma)	TGI (LOX IMVI melanoma)	GI50 (ACHN renal)	TGI (ACHN renal)	GI50 (BT-549 breast)	TGI (BT-549 breast)	GI50 (DU-145 prostate)	TGI (DU-145 prostate)	GI50 (786-0 renal)	TGI (786-0 renal)	GI50 (SF-268 CNS)	TGI (SF-268 CNS)
[N-]=[N+]=NCCCCCC(=O)OC(C(=O)c1ccccc1)c1cccc(OCC(=O)NCCOCCOCCNC(=O)CCCC[C@@H]2SC[C@@H]3NC(=O)N[C@@H]32)c1 (some centres undefined)	> 100 µM	> 100 µM	22.6 µM	60	> 100 µM	> 100 µM	> 100	> 100 µM	18.5 µM	44.5 µM	> 100 µM	> 100 µM	26.2 µM	84.7 µM	> 100 µM	> 100 µM	> 100 µM	> 100 µM	> 100 µM	> 100 µM
O=c1[nH]c(=S)[nH]c2c1CN(CCCN1CCOCC1)CN2	–	> 100 µM	–	> 100	–	> 100 µM	–	95.9 µM	–	62.4 µM	–	92 µM	–	> 100 µM	–	> 100 µM	–	> 100 µM	–	59.1 µM
Cc1csc(/C=C/C(=O)c2nnn(-c3ccnc4c(C(F)(F)F)cccc34)c2C)c1	> 100 µM	> 100 µM	23 µM	> 100	39.7 µM	> 100 µM	52.7	> 100 µM	49.1 µM	> 100 µM	> 100 µM	> 100 µM	> 100 µM	> 100 µM	> 100 µM	> 100 µM	> 100 µM	> 100 µM	25.8 µM	> 100 µM
O=C(COc1cc(O)c2c(=O)cc(-c3ccccc3)oc2c1)Nc1ccccc1C(F)(F)F	4.04 µM	17.8 µM	4.44 µM	> 100	1.71 µM	3.75 µM	8.17	> 100 µM	4.74 µM	22.6 µM	2.91 µM	9.63 µM	5.19 µM	38.9 µM	7.97 µM	> 100 µM	2.01 µM	4.15 µM	4.94 µM	26.1 µM
O=C(Nc1ccc(Cl)c(Cl)c1)Nc1c(Oc2ccc(Cl)c(Cl)c2)ccc(Cl)c1S(=O)(=O)O	1.53 µM	6.26 µM	0.504 µM	> 100	3.53 µM	> 100 µM	0.927	> 100 µM	1.96 µM	> 100 µM	–	–	1.71 µM	> 100 µM	3.22 µM	> 100 µM	3.05 µM	29.8 µM	3.82 µM	> 100 µM
Nc1c(C(=O)Nc2cccc(F)c2)sc2nc3c(cc12)C(=O)CCC3	0.0274 µM	> 100 µM	0.481 µM	> 70.6	0.378 µM	> 100 µM	0.384	> 100 µM	0.772 µM	> 100 µM	0.842 µM	> 100 µM	3.71 µM	> 100 µM	0.354 µM	> 100 µM	0.595 µM	> 100 µM	37 µM	> 100 µM
CC(C)O/N=C/c1cc(NC(=S)OC(C)C)ccc1Cl	–	> 76.5 µM	–	45	–	> 90.6 µM	–	> 100 µM	–	> 52.5 µM	–	97.6 µM	–	> 100 µM	–	> 100 µM	–	> 65.6 µM	–	> 69.8 µM
C[C@@]12CCC[C@@](C)(C(=O)O)C1CC[C@]13C[C@@](O)(CO)[C@](O)(CCC12)C3 (some centres undefined)	> 100 µM	> 100 µM	55.3 µM	> 100	> 100 µM	> 100 µM	> 100	> 100 µM	> 100 µM	> 100 µM	> 100 µM	> 100 µM	> 100 µM	> 100 µM	> 100 µM	> 100 µM	> 100 µM	> 100 µM	> 100 µM	> 100 µM
Nc1nc2c(ncn2C2C=CC(CO)C2)c(=O)[nH]1 (centres undefined)	–	> 100 µM	–	> 100	–	> 100 µM	–	> 100 µM	–	–	–	> 100 µM	–	> 100 µM	–	> 100 µM	–	> 100 µM	–	> 100 µM
CC1CCCC(C(O)CC2CC(=O)NC(=O)C2)C1O (centres undefined)	–	> 100 µM	–	> 100	–	> 100 µM	–	> 100 µM	–	> 100 µM	–	> 100 µM	–	> 100 µM	–	> 100 µM	–	> 100 µM	–	> 100 µM
CCC/C(=N\NC(=S)N1CC2CCC(CC2)C1)c1ccccn1	0.263 µM	2.06 µM and 1.61 µM	–	2.77	0.122 µM	5.23 µM and 2.01 µM	0.0382	0.631 µM and 1.32 µM	0.0199 µM	4.31 µM and 2.13 µM	0.0808 µM	2.72 µM and 2.09 µM	–	1.96 µM	–	2.82 µM	1.25 µM	1.19 µM and 2.55 µM	0.332 µM	8.33 µM and 2.6 µM
Cc1nnc(-c2cccc(-c3ccc(C(=O)NCC4CC4)cc3)c2)o1	> 7.79 µM	> 25 µM	> 25 µM	> 25	> 25 µM	> 25 µM	15.5	> 25 µM	> 25 µM	> 25 µM	> 25 µM	> 25 µM	> 25 µM	> 25 µM	> 25 µM	> 25 µM	> 25 µM	> 25 µM	> 25 µM	> 25 µM
S=C(Nc1ccc(-c2nc3ccccc3[nH]2)cc1)Nc1ccc(-c2nc3ccccc3[nH]2)cc1	–	–	63.4 µM	> 100	> 100 µM	> 100 µM	43.5	> 100 µM	> 100 µM	> 100 µM	> 100 µM	> 100 µM	> 100 µM	> 100 µM	> 100 µM	> 100 µM	89.7 µM	> 100 µM	> 100 µM	> 100 µM
C[n+]1c2cc(N)ccc2cc2ccc(N)cc21	0.162 µM and 0.152 µM and 0.0719 µM	0.795 µM and 0.599 µM and 0.492 µM	687 nM [middle of 4 runs]	–	256 nM [middle of 4 runs]	–	–	–	0.956 µM and 2.26 µM and 1.82 µM	5.52 µM [middle of 4 runs]	1 µM [middle of 4 runs]	–	1.61 µM [middle of 4 runs]	4.05 µM [middle of 4 runs]	1.36 µM [middle of 4 runs]	5.57 µM [middle of 4 runs]	1.33 µM [middle of 4 runs]	–	572 nM [middle of 4 runs]	3.47 µM [middle of 4 runs]
CCN(CC)c1ccc(C(O)C2=CC(=O)c3ccccc3C2=O)cc1 (centres undefined)	2.36 µM	8.35 µM	0.694 µM	5.26	4.4 µM	30.9 µM	–	–	1.14 µM	3.66 µM	1.75 µM	4.6 µM	3.07 µM	8.22 µM	1.85 µM	4.27 µM	1.36 µM	2.65 µM	> 100 µM	> 100 µM
CC(C)(C)c1cc(-n2c(-c3ccc(Cl)cc3)nc3cc(C(=O)Nc4ccc(Cl)cc4)ccc32)n[nH]1	1.99 µM	> 100 µM	> 100 µM	> 100	3.71 µM	> 100 µM	2.76	> 100 µM	–	–	5.18 µM	> 100 µM	5.75 µM	> 100 µM	8.5 µM	> 100 µM	6.18 µM	> 100 µM	9.03 µM	> 100 µM
Cn1c2c(c3ccc([N+](=O)[O-])cc3c1=O)C(=O)c1ccccc1-2	> 100 µM	> 100 µM	–	–	> 100 µM	> 100 µM	> 100	> 100 µM	> 100 µM	> 100 µM	> 100 µM	> 100 µM	> 100 µM	> 100 µM	> 100 µM	> 100 µM	> 100 µM	> 100 µM	> 100 µM	> 100 µM
Nc1nnnn1CCO	–	> 100 µM	–	–	–	> 100 µM	–	> 100 µM	–	> 100 µM	–	> 100 µM	–	> 100 µM	–	> 100 µM	–	> 100 µM	–	> 100 µM
C=CC(=O)Nc1cc(C)ccc1Nc1nc(Nc2cc(OC)ncc2C)ncc1C(F)(F)F	0.157 µM	0.598 µM	–	–	1.02 µM	4.59 µM	1.13	> 58.1 µM	0.142 µM	1.03 µM	0.397 µM	2.07 µM	0.585 µM	6.07 µM	0.996 µM	12.3 µM	0.692 µM	> 100 µM	1.28 µM	> 100 µM
CN(C)CCNC(=O)c1cccc(N(C)C(=O)c2ccccc2)c1[N+](=O)[O-]	–	> 100 µM	–	> 100	–	> 100 µM	–	> 100 µM	–	–	–	> 100 µM	–	> 100 µM	–	> 100 µM	–	> 100 µM	–	> 100 µM
O=C(Nc1ccncc1)C(=O)c1cn(S(=O)(=O)c2ccc(Cl)cc2)c2ccccc12	8.83 µM	> 74.9 µM	–	–	17.5 µM	> 100 µM	0.567	> 100 µM	0.765 µM	> 100 µM	3.49 µM	> 59.6 µM	3.75 µM	> 80.5 µM	3.43 µM	> 49.7 µM	3.5 µM	45.2 µM	1.39 µM	> 100 µM
